Experiments:
[1] = target: T1, 5-HT1AR (Rattus norvegicus, UniProt P19327); assay: Effect of WAY100635 on compound-stimulated [35S]GTPγS binding (Tables SI-1, SI-2); assay type: biochemical; settings: for Emax: basal set to 100%; for EC50: rat frontal cortex homogenates, read-out: pEC50 ± SEM, compound alone (converted); for shift ratio: with WAY100635 10^-7 M vs agonist alone
T1 construct: from tissue; hippocampus per the main-text methods
T1 sequence (P19327 1-422): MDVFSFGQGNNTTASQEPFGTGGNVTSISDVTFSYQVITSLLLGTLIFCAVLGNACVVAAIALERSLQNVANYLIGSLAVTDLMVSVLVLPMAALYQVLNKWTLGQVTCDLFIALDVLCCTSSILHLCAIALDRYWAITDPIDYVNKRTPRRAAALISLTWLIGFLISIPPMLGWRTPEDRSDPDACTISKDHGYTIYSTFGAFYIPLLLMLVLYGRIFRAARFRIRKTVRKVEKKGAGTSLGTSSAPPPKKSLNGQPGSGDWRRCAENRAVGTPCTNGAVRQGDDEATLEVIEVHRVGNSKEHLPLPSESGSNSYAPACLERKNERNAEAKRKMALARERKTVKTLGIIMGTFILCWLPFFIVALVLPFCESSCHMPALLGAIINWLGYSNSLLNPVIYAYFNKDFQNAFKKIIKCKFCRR
Method: The [^35S]GTPγS assay was performed according to the method described previously.[49] […] Nonspecific binding was determined with 100 μM of unlabeled GTPγS. The reaction mixture was incubated for 90 min at 36 °C in a volume of 250 μL. […] Next, 96-well Unifilter Plates (PerkinElmer, USA) were presoaked for 1 h with 50 mM Tris-HCl (pH = 7.4) before harvesting. The reaction was terminated by vacuum filtration onto filter plates with the Filter Mate Harvester (PerkinElmer, USA). The samples were then rapidly washed with 2 mL of 50 mM Tris-HCl (pH = 7.4) buffer. The filter plates were dried for 2 h at 50 °C. After drying, 45 μL of EcoScint-20 scintillant (PerkinElmer, USA) was added to every well. The radioactivity was counted in a Trilux MicroBeta^2 counter (PerkinElmer, USA). The data were analyzed with GraphPad Prism 5.0 software (GraphPad Software, San Diego California USA, www.graphpad.com). To determine whether compound-stimulated [^35S]GTPγS binding involved 5-HT1A receptors, two protocols were used. […]
WAY).) Results were expressed as means ± SEM. Curves were fitted with a one-site sigmoidal dose-response equation […]
calculated as the ratio of pEC50 in the presence of WAY100635 divided by the pEC50 of agonist alone. Basal 5-HT1AR activation was set to 100%. Results were analyzed with one-way ANOVA followed by the Bonferroni’s post-hoc test. […]
WAY100635 (10^-10 M - 10^-5 M, WAY). Results were expressed as means ± SEM. Curves were fitted with a one-site sigmoidal dose-response equation and Emax (%) of the EC80 agonist concentration alone and in the presence of WAY100635 were determined from 2 independent experiments. Basal (no ligand added) [35S]GTPγS binding was set to 100%. Results were analyzed with one-way ANOVA followed by the Bonferroni’s post-hoc test.

[2] = target: T2, human 5-HT6 (Homo sapiens, UniProt P50406); assay: Radioligand binding at 5-HT6 in transfected HEK293 cells; settings: for selectivity 5-HT6/5-HT1A: Antilog [pKi (5-HT1AR) – pKi (5-HT6R)]; for Ki: transfected HEK293 cells, [3H]-LSD, read-out: 5-HT6 pKi ± SEM (converted)
T2 construct: expressed in transfected cells

[3] = target: T1, 5-HT1AR; assay: [35S]GTPγS functional 5-HT1A assay in rat hippocampal membranes; assay type: biochemical; settings: for eudismic ratio (EC50S/R): S vs R optical isomer; for agonist classification by Emax vs serotonin: [35S]GTPγS binding, partial = half (or lower) as efficacious as serotonin; for Emax: basal 5-HT1AR activation set to 100%, read-out: 5-HT1A Emax (%) ± SEM
Method: Male Sprague–Dawley rats were decapitated and their brains removed and placed on ice. The hippocampi (for the functional 5-HT1A receptor assay) or frontal cortexes (for the competitive 5-HT2A and 5-HT2C receptor assays) were dissected and homogenized with a glass homogenizer in 30 vol. ice-cold TED buffer (50 mMTris-HCl, 1 mM EDTA, 1 mM dithiotheritol, pH 7.4). Next, the homogenate was centrifuged at 21 000g for 30 min at 4 °C. The pellet was suspended in 30 vol TED buffer (pH 7.4) and incubated in a water bath for 10 min at 37 °C to remove endogenous ligands. The suspension was centrifuged again at 21 000g for 30 min at 4 °C. The pellet was resuspended in 30 vol TED buffer (pH 7.4) and the centrifugation step was repeated. The final pellet was suspended in 10 vol 50 mM Tris-HCl (pH 7.4) and stored at −80 °C until use.[47]
The [^35S]GTPγS assay was performed according to the method described previously.[49] […] Nonspecific binding was determined with 100 μM of unlabeled GTPγS. The reaction mixture was incubated for 90 min at 36 °C in a volume of 250 μL. […] Next, 96-well Unifilter Plates (PerkinElmer, USA) were presoaked for 1 h with 50 mM Tris-HCl (pH = 7.4) before harvesting. The reaction was terminated by vacuum filtration onto filter plates with the Filter Mate Harvester (PerkinElmer, USA). The samples were then rapidly washed with 2 mL of 50 mM Tris-HCl (pH = 7.4) buffer. The filter plates were dried for 2 h at 50 °C. After drying, 45 μL of EcoScint-20 scintillant (PerkinElmer, USA) was added to every well. The radioactivity was counted in a Trilux MicroBeta^2 counter (PerkinElmer, USA). The data were analyzed with GraphPad Prism 5.0 software (GraphPad Software, San Diego California USA, www.graphpad.com). To determine whether compound-stimulated [^35S]GTPγS binding involved 5-HT1A receptors, two protocols were used.
The curves were fitted with a one-site nonlinear regression model. Efficacy (Emax) and potency (pEC50) were calculated from […] from three separate experiments and expressed as the means ± SEM. […] The differences in compound potency and efficacy were evaluated with one-way ANOVA followed by the Bonferroni’s post-hoc test. The baseline G-protein stimulation was set at 100%. One, two, or three symbols represent statistical significance of 0.05, 0.01, and 0.001, respectively.

[4] = Table SI-1, read-out: Emax (%) ± SEM, compound alone
[5] = Table SI-2, read-out: Emax (%) ± SEM of EC80 agonist concentration alone
[6] = rat hippocampal membranes, [35S]GTPγS, three independent experiments, read-out: 5-HT1A pEC50 ± SEM (converted)

T2 sequence (P50406 whole entry): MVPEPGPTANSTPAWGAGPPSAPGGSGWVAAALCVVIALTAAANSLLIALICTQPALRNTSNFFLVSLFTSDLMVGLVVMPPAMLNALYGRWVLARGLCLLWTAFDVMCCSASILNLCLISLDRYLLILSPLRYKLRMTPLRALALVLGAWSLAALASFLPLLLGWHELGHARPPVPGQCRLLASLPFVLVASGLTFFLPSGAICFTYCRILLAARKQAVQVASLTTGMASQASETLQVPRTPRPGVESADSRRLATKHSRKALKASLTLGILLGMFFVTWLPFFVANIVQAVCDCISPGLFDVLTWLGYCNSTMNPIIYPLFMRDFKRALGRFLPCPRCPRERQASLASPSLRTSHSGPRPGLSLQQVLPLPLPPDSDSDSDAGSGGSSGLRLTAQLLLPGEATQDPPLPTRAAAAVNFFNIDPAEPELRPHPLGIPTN

Compound	Emax [1, 4]	EC50 ([1]; Table SI-1)	shift ratio ([1]; Table SI-1)	Emax [1, 5]	selectivity 5-HT6/5-HT1A [2]	Ki [2]	eudismic ratio (EC50S/R) ([3]; [35S]GTPγS)	agonist classification by Emax vs serotonin [3]	EC50 ([3]; [35S]GTPγS functional assay, read-out: EC50)	Emax ([3]; rat hippocampal membranes)	EC50 [3, 6]	functional activity of (S)-1 compared with racemate 1 [3]
c1ccc(C2(c3ccccc3)OCC(CNCCOc3ccccc3-c3ccncc3)O2)cc1 (racemic) [rac-1, N-[(2,2-diphenyl-1,3-dioxolan-4-yl)methyl]-2-[2-(pyridin-4-yl)phenoxy]ethan-1-ammonium hydrogenoxalate]	151 ± 4.2%	100 nM	6.3	138 ± 28.4%	832	7590 nM	4.0	partial agonists	92.1 nM	151 ± 4.2%	–	–
Cn1cncc1-c1ccccc1OCCNCC1COC(c2ccccc2)(c2ccccc2)O1 (racemic) [rac-2, N-((2,2-diphenyl-1,3-dioxolan-4-yl)methyl)-2-(2-(1-methyl-1H-imidazol-5-yl)phenoxy)ethan-1-ammonium hydrogenoxalate]	184 ± 2.7%	39.8 nM	31.6	158 ± 24.6%	676	5010 nM	2.6	full agonists	–	184 ± 2.7%	39.8 nM	–
c1ccc(C2(c3ccccc3)OC[C@@H](CNCCOc3ccccc3-c3ccncc3)O2)cc1 [(R)-1, N-[(2,2-Diphenyl-1,3-dioxolan-4-yl)methyl]-2-[2-(pyridin-4-yl)phenoxy]ethan-1-ammonium hydrogenoxalate]	158 ± 5.9%	63.1 nM	10.0	149 ± 35.1%	955	4270 nM	–	partial agonists	–	158 ± 5.9%	63.1 nM	–
Cn1cncc1-c1ccccc1OCCNC[C@@H]1COC(c2ccccc2)(c2ccccc2)O1 [(R)-2, N-((2,2-Diphenyl-1,3-dioxolan-4-yl)methyl)-2-(2-(1-methyl-1H-imidazol-5-yl)phenoxy)ethan-1-ammonium hydrogenoxalate]	143 ± 3.6%	63.1 nM	19.9	140 ± 18.8%	417	5010 nM	–	partial agonists	–	143 ± 3.6%	63.1 nM	–
c1ccc(C2(c3ccccc3)OC[C@H](CNCCOc3ccccc3-c3ccncc3)O2)cc1 [(S)-1, N-[(2,2-Diphenyl-1,3-dioxolan-4-yl)methyl]-2-[2-(pyridin-4-yl)phenoxy]ethan-1-ammonium hydrogenoxalate]	138 ± 2.9%	15.8 nM	39.8	134 ± 24.5%	347	3240 nM	–	partial agonists	–	138 ± 2.9%	15.8 nM	6 fold
Cn1cncc1-c1ccccc1OCCNC[C@H]1COC(c2ccccc2)(c2ccccc2)O1 [(S)-2, N-((2,2-Diphenyl-1,3-dioxolan-4-yl)methyl)-2-(2-(1-methyl-1H-imidazol-5-yl)phenoxy)ethan-1-ammonium hydrogenoxalate]	175 ± 2.7%	25.1 nM	25.1	156 ± 21.7%	1349	5500 nM	–	full agonists	–	175 ± 2.7%	25.1 nM	–

From publication PMC8016166, “Identification of a Potent and Selective 5-HT1A Receptor Agonist with In Vitro and In Vivo Antinociceptive Activity” (ACS Chemical Neuroscience, 2020)
